Here are results for six compounds from ChEMBL document CHEMBL3822441, “Azadirachta indica triterpenoids promote osteoblast differentiation and mineralization in vitro and in vivo” (2016).

The source made the active and inactive calls. The rule behind the calls is not given here.

In experiment [1] the test system is Calvarial osteoblast. The experiment is described as follows: Osteogenic activity in rat primary calvarial osteoblasts at 10 nM after 48 hrs by ALP-based colorimetric assay. Format: functional, cell-based.
The subject of experiment [2] is Calvarial osteoblast. Description: Osteogenic activity in rat primary calvarial osteoblasts at 100 pM after 48 hrs by ALP-based colorimetric assay. The class given is functional, cell-based.
In experiment [3] the test system is Calvarial osteoblast. The experiment is described as follows: Induction of cell proliferation in rat primary calvarial osteoblasts at 0.1 to 10 nM after 48 hrs by BrDU-staining based assay relative to control. Format: functional.
The subject of experiment [4] is Calvarial osteoblast. Description: Induction of mineralization in rat primary calvarial osteoblasts assessed as mineralized nodule formation at 0.001 to 10 nM after 12 days by alizarin red S-staining based assay relative to control. The class given is functional, cell-based.
Experiment [5] is described as follows: Upregulation of ALP mRNA expression in rat primary calvarial osteoblasts at 100 pM by RT-PCR analysis relative to control. Format: functional, cell-based. The settings on record: Calvarial osteoblast.
The nature of experiment [6]: Upregulation of RunX-2 mRNA expression in rat primary calvarial osteoblasts at 10 nM by RT-PCR analysis relative to control. The conditions noted are these: Calvarial osteoblast. Format: functional, cell-based.
The nature of experiment [7]: Upregulation of ALP mRNA expression in rat primary calvarial osteoblasts at 10 nM […] by RT-PCR analysis relative to control. Format: functional, cell-based. The conditions noted are these: Calvarial osteoblast.
Experiment [8] is described as follows: Upregulation of OCN mRNA expression in rat primary calvarial osteoblasts at 10 nM by RT-PCR analysis relative to control. The conditions noted are these: Calvarial osteoblast. The class given is functional, cell-based.
In experiment [9] the test system is Calvarial osteoblast. The experiment is described as follows: Osteogenic activity in rat primary calvarial osteoblasts at 1 pM after 48 hrs by ALP-based colorimetric assay. Format: functional, cell-based.
Experiment [10] concerns Calvarial osteoblast. The experiment is described as follows: Induction of mineralization in rat primary calvarial osteoblasts assessed as mineralized nodule formation at 10 to 1000 nM after 12 days by alizarin red S-staining based assay relative to control. Format: functional, cell-based.
Experiment [11] in a line: Upregulation of RunX-2 mRNA expression in rat primary calvarial osteoblasts at 100 pM by RT-PCR analysis relative to control. The class given is functional, cell-based. The settings on record: Calvarial osteoblast.
Experiment [12] can be described thus: Upregulation of OCN mRNA expression in rat primary calvarial osteoblasts at 100 pM by RT-PCR analysis relative to control. The class given is functional, cell-based. The settings on record: Calvarial osteoblast.
Experiment [13] has as its system Rattus norvegicus. The experiment is described as follows: Osteogenic activity in rat assessed as upregulation of ALP mRNA expression in calvarial osteoblasts at 5 mg/kg/day, sc dosed for 3 days by RT-PCR analysis relative to control. The class given is functional.
In experiment [14] the test system is Rattus norvegicus. The experiment is described as follows: Osteogenic activity in rat assessed as upregulation of RunX-2 mRNA expression in calvarial osteoblasts at 0.5 mg/kg/day, sc dosed for 3 days by RT-PCR analysis relative to control. The class given is functional.
Experiment [15] relates to Rattus norvegicus. The experiment is described as follows: Osteogenic activity in rat assessed as upregulation of RunX-2 mRNA expression in calvarial osteoblasts at 1 mg/kg/day, sc dosed for 3 days by RT-PCR analysis relative to control. The class given is functional.
Experiment [16] relates to Rattus norvegicus. The experiment is described as follows: Osteogenic activity in rat assessed as upregulation of RunX-2 mRNA expression in calvarial osteoblasts at 5 mg/kg/day, sc dosed for 3 days by RT-PCR analysis relative to control. Format: functional.
The test system of experiment [17] is Rattus norvegicus. Description: Osteogenic activity in rat assessed as upregulation of RunX-2 mRNA expression in calvarial osteoblasts at 10 mg/kg/day, sc dosed for 3 days by RT-PCR analysis relative to control. Format: functional.
The subject of experiment [18] is Rattus norvegicus. The experiment is described as follows: Osteogenic activity in rat assessed as upregulation of COL-1 mRNA expression in calvarial osteoblasts at 1 mg/kg/day, sc dosed for 3 days by RT-PCR analysis relative to control. Format: functional.
Experiment [19] relates to Rattus norvegicus. The experiment is described as follows: Osteogenic activity in rat assessed as upregulation of COL-1 mRNA expression in calvarial osteoblasts at 5 mg/kg/day, sc dosed for 3 days by RT-PCR analysis relative to control. The class given is functional.
Experiment [20] relates to Rattus norvegicus. Description: Induction of bone formation in rat assessed as increase in mineral appositional rate in calvarial osteoblasts at 1 mg/kg/day, sc dosed for 3 days by dynamic histomorphometric analysis relative to control. Format: functional.
Experiment [21] deals with Rattus norvegicus. The experiment is described as follows: Induction of bone formation in rat assessed as increase in mineral appositional rate in calvarial osteoblasts at 5 mg/kg/day, sc dosed for 3 days by dynamic histomorphometric analysis relative to control. The class given is functional.
Experiment [22] concerns Rattus norvegicus. The experiment is described as follows: Induction of bone formation in rat assessed as increase in bone-formation rate in calvarial osteoblasts at 1 mg/kg/day, sc dosed for 3 days by dynamic histomorphometric analysis relative to control. The class given is functional.
Experiment [23] concerns Rattus norvegicus. The experiment is described as follows: Induction of bone formation in rat assessed as increase in bone-formation rate in calvarial osteoblasts at 5 mg/kg/day, sc dosed for 3 days by dynamic histomorphometric analysis relative to control. Format: functional.
For experiment [24], the system named is Rattus norvegicus. Description: Induction of bone formation in rat assessed as increase in bone-formation rate in calvarial osteoblasts at 10 mg/kg/day, sc dosed for 3 days by dynamic histomorphometric analysis relative to control. The class given is functional.
Experiment [25] deals with Calvarial osteoblast. Description: Induction of cell proliferation in rat primary calvarial osteoblasts at 10 nM nM after 48 hrs by BrDU-staining based assay relative to control. The class given is functional.

Turning to `CC(=O)O[C@@H]1C[C@H]2C(C)(C)C(=O)C=C[C@]2(C)[C@H]2CC[C@@]3(C)[C@H](c4ccoc4)C(=O)[C@H]4O[C@]43[C@@]21C`, the result in the experiment on Calvarial osteoblast [1] was Active.
For the compound `C/C=C(\C)C(=O)O[C@@H]1C[C@H](O)[C@]23CO[C@H](C(=O)OC)[C@H]2[C@](C)([C@]24O[C@@]2(C)[C@H]2C[C@@H]4O[C@@H]4OC=C[C@@]42O)[C@H](O)[C@@H]2OC[C@@]1(C(=O)OC)[C@H]23`, the outcome in the experiment with Calvarial osteoblast [2], in the experiment on Calvarial osteoblast [3] and in the experiment with Calvarial osteoblast [4] was Active. For the same compound, the fold change (FC) in experiment [5] is 2.8; in experiment [6], 2.5; in experiment [7] it was 2.8; in [8], 2.5.
On to `C/C=C(\C)C(=O)O[C@H]1C[C@@H](OC(C)=O)[C@@]2(C)CO[C@H]3[C@H]4O[C@@H]5C[C@@H](c6ccoc6)C(C)=C5[C@@]4(C)[C@H](CC(=O)OC)[C@]1(C)[C@@H]32`, for which the result in the experiment with Calvarial osteoblast [9] was Active.
For `CC(=O)O[C@@H]1C[C@H]2C(C)(C)C(=O)C=C[C@]2(C)[C@H]2CC[C@]3(C)C(=CC[C@H]3c3ccoc3)[C@@]21C`, the result with Calvarial osteoblast [2], with Calvarial osteoblast [3] and in the experiment on Calvarial osteoblast [10] was Active. The figures for the fold change (FC) in [11] and in [12] were 2.7 and 2.3, respectively. The outcome in [5] was inactive.
Take `C/C=C(\C)C(=O)O[C@H]1C[C@@H](OC(C)=O)[C@@]2(C(=O)OC)CO[C@H]3[C@@H](O)[C@@](C)([C@@]45O[C@@]4(C)[C@H]4C[C@@H]5O[C@@H]5OC=C[C@@]54O)[C@H]4[C@]1(CO[C@]4(O)C(=O)OC)[C@@H]32`: the result with Calvarial osteoblast [2], in the experiment with Calvarial osteoblast [3] and with Calvarial osteoblast [4] was Active. For the same compound, the fold change (FC) worked out at 3.5 in experiment [11]; 3 in experiment [12]; 4.5 in experiment [5]; 2 with Rattus norvegicus [13]; 5 with Rattus norvegicus [14]; 7 in the experiment on Rattus norvegicus [15]. For the same compound, the “fold change (FC)” value in the experiment with Rattus norvegicus [16] was determined as 7.5; in the experiment with Rattus norvegicus [17] it was 3; with Rattus norvegicus [18], 7; with Rattus norvegicus [19] it was 3.5; with Rattus norvegicus [20], 3.4; in the experiment on Rattus norvegicus [21], 4. Further, the “fold change (FC)” value with Rattus norvegicus [22] came out at 4; in the experiment on Rattus norvegicus [23], 5; in the experiment on Rattus norvegicus [24], 3.2.
With `C[C@]12CC[C@@H]3c4ccc(O)cc4CC[C@H]3[C@@H]1CC[C@@H]2O`, in the experiment with Calvarial osteoblast [25], the outcome was Active.
